{
  "source": "patent US6706663B2",
  "about": "“Herbicidal 3-heterocyclic substituted benzisothiazole and benzisoxazole compounds” (Wyeth, priority 2000, dated 2004)",
  "system": "GLXMA (Soybean)",
  "test": "Postemergence herbicidal evaluation",
  "assay_type": "in vivo, Glycine max, (L.) Merr.",
  "settings": "for GLXMA herbicidal rating: postemergence",
  "experimental": "In the tests, seedling plants are grown in jiffy flats for about two weeks. The test compounds are dispersed in 50/50 acetone/water mixtures containing 0.5% TWEEN® 20, a polyoxyethylene sorbitan monolaurate surfactant of Atlas Chemical Industries, in sufficient quantities to provide the equivalent of about 0.0040 kg to 1.000 kg per hectare of active compound when applied to the plants through a spray nozzle operating at 40 psi for a predetermined time. After spraying, the plants are placed on greenhouse benches and are cared for in accordance with conventional greenhouse procedures. From four to five weeks after treatment, the seedling plants are examined and rated according to the rating system set forth below. Where more than one test is involved for a given compound, the data are averaged.\nResults of herbicide evaluation are expressed on a rating scale (0-9). The scale is based upon a visual observation of plant stand, vigor, malformation, size, chlorosis and overall plant appearance as compared with a control.",
  "data": [
    {"smiles": "Cc1ccsc1-c1nsc2ccc(-n3c(=O)cc(C(F)(F)F)n(C)c3=O)cc12", "note": "[Compound 4, 1-methyl-3-[3-(3-methyl-2-thienyl)-1,2-benzisothiazol-5-yl]-6-(trifluoromethyl)uracil]", "values": [
      {"measurement": "Postemergence herbicidal rating, GLXMA", "setting": "rate 0.0320 kg/ha", "value": 9.0}
    ]},
    {"smiles": "Cn1c(C(F)(F)F)cc(=O)n(-c2cc3c(C4OCCO4)nsc3cc2F)c1=O", "note": "[Compound 61, 3-[3-(1,3-dioxolan-2-yl)-6-fluoro-1,2-benzisothiazol-5-yl]-1-methyl-6-(trifluoromethyl)uracil]", "values": [
      {"measurement": "GLXMA herbicidal rating", "setting": "rate 0.0320 kg/ha", "value": 8.5},
      {"measurement": "GLXMA herbicidal rating", "setting": "rate 0.0620 kg/ha", "value": 8.5}
    ]}
  ]
}
